Laboratory results as given in article PMC5472792, “Bub1 positions Mad1 close to KNL1 MELT repeats to promote checkpoint signalling” (Nature Communications, 2017).
Residue numbers refer to the chain shown, from its start. Square brackets hold non-standard residues; d marks the D form. Peptide text beside a SMILES is read from it. * marks the point of attachment. Biotin = O=C1N[C@H]2[C@H](CS[C@H]2CCCCC(=O)*)N1; pT = C[C@@H](OP(=O)(O)O)[C@H](N)C(=O)O; Nle = CCCC[C@H](N)C(=O)O

How the values were obtained:
[1] = target: T1, Mad1 597–718 RLK/AAA (Homo sapiens, UniProt Q9Y6D9, K619A/L618A/R617A); assay: SPR, binding of CD1 peptide to Mad1 597–718 RLK/AAA; details: Mad1 597–718 RLK/AAA injected up to 250 μM, 25 °C
T1 construct: His; Strep; made in house; host or cells: E. coli BL21(DE3) (stated for the wild-type construct)
T1 sequence (Q9Y6D9 597-718 R617A/L618A/K619A limits assumed): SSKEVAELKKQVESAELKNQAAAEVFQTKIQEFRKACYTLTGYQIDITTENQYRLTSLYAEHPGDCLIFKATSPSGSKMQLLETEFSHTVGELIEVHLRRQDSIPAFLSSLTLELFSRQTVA
Source text: To further investigate a possible direct interaction between Mad1 and CD1, we used surface plasmon resonance technology. […] To achieve a more efficient synthesis of CD1 peptides and in particularly of the phosphorylated peptides we used norleucine (Nle) instead of methionine (Met) but we cannot exclude that Mad1 will have a different affinity for peptides containing methionine. […] Given that Ser459 and Thr461 phosphorylation was critical for Bub1 functionality in vivo we tested if they affected Mad1 597–718 binding. […] As the Mad1 RLK motif is required for binding Bub1 in budding yeast in vivo[39], we tested whether this motif was required for direct binding to CD1 phosphorylated on Thr461. […] We furthermore analysed the binding of Mad1 597–718 to CD1 peptides harboring the Ile471Asp and […] (residues 474–476) mutations with Thr461 being phosphorylated.
Figure 4 Direct binding of Mad1 to CD1 peptide. […] The equilibrium dissociation constants, KD, were calculated using a steady-state affinity model and the lines represent the best fit to the model. […] (c) Sequence and summary of the affinity of CD1 peptides for Mad1 597–718 as determined by SPR.
Bub1 peptides were purchased from Biosyntan Gmbh (Germany). The purity obtained in the synthesis was 95–98% as determined by high-performance liquid chromatography (HPLC) and the identity of the peptides was confirmed by mass spectrometry. […]

[2] = target: T2, Mad1 597–718 Glu710Ala/Phe712Ala (Homo sapiens, UniProt Q9Y6D9, E710A/F712A); assay: SPR, binding of CD1 peptide to Mad1 597–718 Glu710Ala/Phe712Ala; details: steady state, similar to Fig. 4
T2 construct: His; Strep; made in house; host or cells: E. coli BL21(DE3) (stated for the wild-type construct)
T2 sequence (Q9Y6D9 597-718 E710A/F712A): T1 sequence (Q9Y6D9 597-718 R617A/L618A/K619A limits assumed) with A21R, A22L, A23K, E114A, F116A
Source text: To investigate this, we first tested the role of these Mad1 residues in binding Bub1. We measured the ability of recombinant Mad1 (597–718) Glu710Ala/Phe712Ala to bind the CD1 peptide phosphorylated on Thr461. […] This argues that Mad1 has an important function in the checkpoint in addition to interacting with Mad2 and Bub1.
Figure 6 Residues in Mad1 are important for SAC function but not Bub1 binding. (a) SPR steady-state responses for pT461 Bub1 CD1 peptides to purified Mad1 597–718 Glu710Ala/Phe712Ala protein similar to Fig. 4. (b) Nocodazole arrested stable HeLa cell lines expressing Mad1-BirA or mutants were treated with biotin as indicated and biotinylated proteins were isolated. The samples were analysed for the presence of KNL1, Bub1 and BubR1 by western blot. Mad1-BirA (WT), Mad1(EFR/AAA)-BirA and Mad1 (RLK/AAA)-BirA. Representative of two independent experiments. […] Live cell imaging and quantification were performed as in Fig. 5a. […] The number of cells analysed per condition is indicated above. […]
Bub1 peptides were purchased from Biosyntan Gmbh (Germany). The purity obtained in the synthesis was 95–98% as determined by high-performance liquid chromatography (HPLC) and the identity of the peptides was confirmed by mass spectrometry. […] Sensorgrams were analysed after double referencing. […]

binding [1]: no binding
SMILES: CCCC[C@H](NC(=O)[C@H](CC(N)=O)NC(=O)[C@H](CCCC)NC(=O)[C@@H](NC(=O)[C@H](Cc1ccccc1)NC(=O)CNC(=O)[C@H](CC(C)C)NC(=O)[C@H](C)NC(=O)[C@H](CCC(=O)O)NC(=O)[C@H](CCCCN)NC(=O)[C@@H](NC(=O)[C@H](Cc1c[nH]cn1)NC(=O)[C@@H](NC(=O)[C@@H](NC(=O)[C@@H]1CCCN1C(=O)[C@H](CO)NC(=O)[C@@H]1CCCN1C(=O)[C@H](CCC(N)=O)NC(=O)[C@@H](NC(=O)[C@H](CCCCN)NC(=O)[C@H](CO)NC(=O)[C@@H]1CCCN1C(=O)[C@@H](NC(=O)[C@H](C)NC(=O)[C@H](CCC(N)=O)NC(=O)[C@@H](NC(=O)CCCC[C@@H]1SC[C@@H]2NC(=O)N[C@@H]21)C(C)C)[C@@H](C)O)C(C)C)[C@@H](C)OP(=O)(O)O)C(C)C)[C@@H](C)O)[C@@H](C)CC)C(=O)N[C@@H](Cc1ccccc1)C(=O)N[C@@H](CCC(N)=O)C(=O)N[C@@H](C)C(=O)N1CCC[C@H]1C(=O)N[C@H](C(=O)N[C@@H](CC(C)C)C(=O)N[C@@H](Cc1c[nH]c2ccccc12)C(=O)O)[C@@H](C)O [CD1 pT461] (Biotin-VQATPSKVQPSP[pT]VHTKEALGFI[Nle]N[Nle]FQAPTLW-OH; C-terminus assumed)
KD [2]: the same affinity towards phosphorylated CD1 as wild type Mad1
